Bridge positions count the residues as written; N and C are the ends. Square brackets hold non-standard residues; d marks the D form. Peptide text beside a SMILES is read from it. R8 = C=CCCCCCC[C@@](C)(N)C(=O)O; Cba = N[C@@H](CC1CCC1)C(=O)O; S5 = C=CCCC[C@](C)(N)C(=O)O; Nle = CCCC[C@H](N)C(=O)O; Ac3c = NC1(C(=O)O)CC1
Experiments:
[1] = system: Caspase 3; experiment: Caspase 3 detection assay in SJSA1 cells; assay type: cell-based; conditions: SJSA1, 48 h, Caspase 3 activation over DMSO-treated cells
[2] = system: SJSA-1 cells; experiment: Cell lysis by peptidomimetic macrocycles (LDH release); assay type: cell-based; conditions: SJSA-1, 1 h
Protocol: SJSA-1 cells were plated out one day in advance in clear flat-bottom plates (Costar, catalog number 353072) at 7500 cells/well with 100 ul/well of growth media, leaving row H columns 10-12 empty for media alone. On the day of the assay, media was exchanged with RPMI 1% FBS media, 90 uL of media per well.
10 mM stock solutions of the peptidomimetic macrocycles were prepared in 100% DMSO. Peptidomimetic macrocycles were then diluted serially in 100% DMSO, and then further diluted 20-fold in sterile water to prepare working stock solutions in 5% DMSO/water of each peptidomimetic macrocycle at concentrations ranging from 500 μM to 62.5 μM.
10 μL of each compound was added to the 90 uL of SJSA-1 cells to yield final concentrations of 50 μM to 6.25 μM in 0.5% DMSO-containing media. The negative control (non-lytic) sample was 0.5% DMSO alone and positive control (lytic) samples include 10 μM Melittin and 1% Triton X-100.
Cell plates were incubated for 1 hour at 37° C. After the 1 hour incubation, the morphology of the cells is examined by microscope and then the plates were centrifuged at 1200 rpm for 5 minutes at room temperature. 40 μL of supernatant for each peptidomimetic macrocycle and control sample is transferred to clear assay plates. LDH release is measured using the LDH cytotoxicity assay kit from Caymen, catalog #1000882.

Structure (SMILES)	caspase 0.3 μM [1]	caspase 3 μM [1]	caspase 10 μM [1]	caspase 30 μM [1]	6.25 μM % Lysed cells (1 h LDH) [2] [%]	25 μM % Lysed cells (1 h LDH) [2] [%]	50 μM % Lysed cells (1 h LDH) [2] [%]	caspase 1 μM [1]
CC(=O)N[C@@H](CC(C)C)C(=O)N[C@H](C(=O)N[C@@H](Cc1ccccc1)C(=O)N[C@]1(C)CCCCCCC=CCCC[C@@](C)(C(=O)N[C@@H](CO)C(=O)N[C@@H](C)C(=O)N[C@@H](C)C(N)=O)NC(=O)[C@H](CC2CCC2)NC(=O)[C@H](CCC(N)=O)NC(=O)[C@H](C)NC(=O)[C@H](Cc2c[nH]c3ccccc23)NC(=O)[C@H](Cc2ccc(O)cc2)NC(=O)[C@H](CCC(=O)O)NC1=O)[C@@H](C)O (single isomer, unassigned) [compound 153]	2	10	15	20	4	2	3	
CC(=O)N[C@@H](CC(C)C)C(=O)N[C@H](C(=O)N[C@@H](Cc1ccccc1)C(=O)N[C@]1(C)CCCCCCC=CCCC[C@@](C)(C(=O)N[C@@H](CO)C(=O)N[C@H](C(=O)NCC(N)=O)C(C)C)NC(=O)[C@H](CC(C)C)NC(=O)[C@H](CCC(N)=O)NC(=O)[C@H](C)NC(=O)[C@H](Cc2c[nH]c3ccccc23)NC(=O)[C@H](Cc2ccc(O)cc2)NC(=O)[C@H](C)NC1=O)[C@@H](C)O [compound 123] (Ac-LTF[R8]AYWAQL[S5]SVG-NH2; staple 4-11)	1	1	6	14	−2	5	3	
CC(=O)N[C@@H](CC(C)C)C(=O)N[C@H](C(=O)N[C@@H](Cc1ccccc1)C(=O)N[C@]1(C)CCCCCCC=CCCC[C@@](C)(C(=O)N[C@@H](CO)C(=O)N[C@H](C(=O)N[C@@H](CO)C(N)=O)C(C)C)NC(=O)[C@H](CC(C)C)NC(=O)[C@H](CCC(N)=O)NC(=O)[C@H](C)NC(=O)[C@H](Cc2c[nH]c3ccccc23)NC(=O)[C@H](Cc2ccc(O)cc2)NC(=O)[C@H](C(C)C)NC1=O)[C@@H](C)O (single isomer, unassigned) [compound 142]	1	2	15	20	1	1	3	
CC(=O)N[C@@H](CC(C)C)C(=O)N[C@H](C(=O)N[C@@H](Cc1ccccc1)C(=O)N[C@]1(C)CCCCCCC=CCCC[C@@](C)(C(=O)N[C@@H](C)C(=O)N[C@@H](C)C(=O)N[C@@H](C)C(=O)N[C@@H](C)C(=O)N[C@@H](C)C(=O)N[C@H](C)C(N)=O)NC(=O)[C@H](CC2CCC2)NC(=O)[C@H](CCC(N)=O)NC(=O)[C@H](C)NC(=O)[C@H](Cc2c[nH]c3ccccc23)NC(=O)[C@H](Cc2ccc(O)cc2)NC(=O)[C@H](CCC(=O)O)NC1=O)[C@@H](C)O (single isomer, unassigned) [compound 347]	2	5	8	29	0	0	0	3
CC[C@H](C)[C@H](NC(=O)[C@H](C)NC(=O)[C@H](C)NC(=O)[C@]1(C)CCCC=CCCCCCC[C@@](C)(NC(=O)[C@H](Cc2ccccc2)NC(=O)[C@@H](NC(=O)[C@H](CC(C)C)NC(C)=O)[C@@H](C)O)C(=O)N[C@@H](CCC(=O)O)C(=O)N[C@@H](Cc2ccc(O)cc2)C(=O)N[C@@H](Cc2c[nH]c3ccccc23)C(=O)N[C@@H](C)C(=O)N[C@@H](CCC(N)=O)C(=O)N[C@@H](CC2CCC2)C(=O)N1)C(=O)N[C@H](C)C(N)=O [compound 247] (Ac-LTF[R8]EYWAQ[Cba][S5]AAI[dA]-NH2; staple 4-11)	1	3	11	24	0	0	4	
CC[C@H](C)[C@H](NC(=O)[C@H](C)NC(=O)[C@H](C)NC(=O)[C@]1(C)CCCC=CCCCCCC[C@@](C)(NC(=O)[C@H](Cc2ccccc2)NC(=O)[C@@H](NC(=O)[C@H](CC(C)C)NC(C)=O)[C@@H](C)O)C(=O)N[C@@H](C)C(=O)N[C@@H](Cc2ccc(O)cc2)C(=O)N[C@@H](Cc2c[nH]c3ccccc23)C(=O)N[C@@H](C)C(=O)N[C@@H](C)C(=O)N[C@@H](CC(C)C)C(=O)N1)C(=O)N[C@H](C)C(N)=O (single isomer, unassigned) [compound 203]	1	3	12	10	0	2	2	
CC(=O)N[C@@H](CC(C)C)C(=O)N[C@H](C(=O)N[C@@H](Cc1ccccc1)C(=O)N[C@]1(C)CCCCCCC=CCCC[C@@](C)(C(=O)N[C@@H](C)C(=O)N[C@@H](C)C(=O)N[C@@H](C)C(=O)N[C@@H](C)C(=O)N[C@@H](C)C(=O)N[C@@H](C)C(=O)N[C@H](C)C(N)=O)NC(=O)[C@H](CC(C)C)NC(=O)[C@H](CCC(N)=O)NC(=O)[C@H](C)NC(=O)[C@H](Cc2c[nH]c3ccccc23)NC(=O)[C@H](Cc2ccc(O)cc2)NC(=O)[C@H](C)NC1=O)[C@@H](C)O (single isomer, unassigned) [compound 317]	3	9	26	35	0	0	0	4
CC(=O)N[C@@H](CC(C)C)C(=O)N[C@H](C(=O)N[C@@H](Cc1ccccc1)C(=O)N[C@]1(C)CCCCCCC=CCCC[C@@](C)(C(=O)N[C@@H](C)C(=O)N[C@@H](Cc2c[nH]cn2)C(=O)N[C@@H](Cc2ccccc2)C(=O)N[C@@H](C)C(N)=O)NC(=O)[C@H](CC(C)C)NC(=O)[C@H](C)NC(=O)[C@H](C)NC(=O)[C@H](Cc2c[nH]c3ccccc23)NC(=O)[C@H](Cc2ccc(O)cc2)NC(=O)[C@H](C)NC1=O)[C@@H](C)O [compound 204] (Ac-LTF[R8]AYWAAL[S5]AHFA-NH2; staple 4-11)	1	4	10	10	4	2	0	
CC[C@H](C)[C@H](NC(=O)[C@H](C)NC(=O)[C@H](C)NC(=O)[C@]1(C)CCCC=CCCCCCC[C@@](C)(NC(=O)[C@H](Cc2ccccc2)NC(C)=O)C(=O)N[C@@H](C)C(=O)N[C@@H](Cc2ccc(O)cc2)C(=O)N[C@@H](Cc2c[nH]c3ccccc23)C(=O)N[C@@H](CCC(=O)O)C(=O)NC2(CC2)C(=O)N[C@@H](CC(C)C)C(=O)N1)C(N)=O [compound 19] (Ac-F[R8]AYWE[Ac3c]L[S5]AAI-NH2; staple 2-9)					2	3	21	
CC(C)CC[C@@H]1NC(=O)[C@H](CCC(N)=O)NC(=O)[C@H](C)NC(=O)[C@H](Cc2c[nH]c3ccccc23)NC(=O)[C@H](Cc2ccc(O)cc2)NC(=O)[C@H](CCC(=O)O)NC(=O)[C@](C)(NC(=O)[C@H](Cc2ccccc2)NC(=O)[C@@H](NC(=O)[C@H](CC(C)C)NC(=O)C(C)(C)C)[C@@H](C)O)CCCCCCC=CCCC[C@@](C)(C(=O)N[C@@H](CO)C(=O)N[C@@H](C)C(=O)N[C@@H](C)C(N)=O)NC1=O [compound 284]					5	5	6	
CCCC[C@H](NC(=O)[C@H](C)NC(=O)[C@H](CCC(N)=O)NC(=O)[C@H](Cc1c[nH]cn1)NC(=O)[C@]1(C)CCCC=CCCCCCC[C@@](C)(NC(=O)[C@H](Cc2ccccc2)NC(C)=O)C(=O)N[C@@H](C)C(=O)N[C@@H](Cc2ccc(O)cc2)C(=O)N[C@@H](Cc2c[nH]c3ccccc23)C(=O)N[C@@H](CO)C(=O)N[C@@H](C)C(=O)N[C@@H](CC(C)C)C(=O)N1)C(N)=O [compound 39] (Ac-F[R8]AYWSAL[S5]HQA[Nle]-NH2; staple 2-9)					0	0	3	
